Reference: patent US20140249135A1, “PIM KINASE INHIBITORS AND METHODS OF THEIR USE” (NOVARTIS AG, priority 2007, published 2014)
Read-outs that look alike come from different tables or passages of the source.

Key:
Type in all cases: biochemical
[1] = molecular target: Pim1 kinase (Homo sapiens, UniProt P11309); test: Pim1 ATP depletion assay;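 also: Luciferase-luciferin luminescence readout of residual ATP after PIM1 transfers phosphate to a peptide substrate, 40 µM ATP added, reaction run to roughly half ATP consumption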
[2] = molecular target: Pim2 kinase (Homo sapiens, UniProt Q9P1W9); test: Pim2 ATP depletion assay;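 also: Luciferase-based luminescent readout of ATP remaining after PIM2 phosphorylates a BAD peptide, final 5 nM enzyme, 4 µM ATP, 10 µM peptide, 2.5% DMSO, run to roughly half ATP consumption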
[3] = molecular target: Pim3 kinase (Homo sapiens, UniProt Q86V86); test: Pim3 ATP depletion assay
[4] = molecular target: T1, human full length PKCE enzyme (Homo sapiens, UniProt Q02156); test: In vitro PKCE assay; conditions: 10 nM enzyme, 40 uM peptide substrate, 20 uM ATP, KinaseGlo Plus readout; read-out: PKCε IC50
T1 construct: human full length PKCE enzyme purchased from InVitrogen; purchased InVitrogen
T1 sequence (Q02156 1-737): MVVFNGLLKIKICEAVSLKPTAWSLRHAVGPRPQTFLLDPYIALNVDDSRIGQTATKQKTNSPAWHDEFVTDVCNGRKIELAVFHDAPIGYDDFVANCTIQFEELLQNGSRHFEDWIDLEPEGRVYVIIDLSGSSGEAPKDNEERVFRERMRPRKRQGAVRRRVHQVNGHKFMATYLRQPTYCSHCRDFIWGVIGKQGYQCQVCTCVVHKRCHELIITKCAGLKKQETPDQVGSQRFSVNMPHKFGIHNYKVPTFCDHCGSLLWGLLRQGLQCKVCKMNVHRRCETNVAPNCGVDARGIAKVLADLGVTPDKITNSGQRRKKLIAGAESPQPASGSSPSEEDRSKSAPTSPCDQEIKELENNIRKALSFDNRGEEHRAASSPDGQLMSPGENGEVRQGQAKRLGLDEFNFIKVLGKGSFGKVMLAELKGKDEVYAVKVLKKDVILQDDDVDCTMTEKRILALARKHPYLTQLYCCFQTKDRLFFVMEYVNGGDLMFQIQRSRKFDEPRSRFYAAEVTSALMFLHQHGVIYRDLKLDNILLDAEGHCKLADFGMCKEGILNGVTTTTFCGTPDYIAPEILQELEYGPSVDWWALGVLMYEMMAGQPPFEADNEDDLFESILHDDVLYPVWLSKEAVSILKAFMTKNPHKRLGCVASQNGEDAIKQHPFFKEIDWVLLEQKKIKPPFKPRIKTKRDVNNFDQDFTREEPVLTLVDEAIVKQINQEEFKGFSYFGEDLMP

[5] = Pim1 ATP depletion assay, read-out: IC50 (μM) PIM1
[6] = Pim1 ATP depletion assay, read-out: PIM1 IC50

Pim2 kinase, sequence (Q9P1W9 whole entry): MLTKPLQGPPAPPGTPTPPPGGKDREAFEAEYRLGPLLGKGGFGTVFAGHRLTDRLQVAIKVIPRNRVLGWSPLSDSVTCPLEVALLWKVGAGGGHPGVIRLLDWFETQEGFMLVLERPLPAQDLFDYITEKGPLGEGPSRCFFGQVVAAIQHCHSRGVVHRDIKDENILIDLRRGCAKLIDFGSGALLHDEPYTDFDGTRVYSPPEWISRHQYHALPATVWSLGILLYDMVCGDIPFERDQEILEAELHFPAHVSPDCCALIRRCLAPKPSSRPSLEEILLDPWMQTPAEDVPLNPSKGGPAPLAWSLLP
Pim1 kinase, sequence (P11309 whole entry): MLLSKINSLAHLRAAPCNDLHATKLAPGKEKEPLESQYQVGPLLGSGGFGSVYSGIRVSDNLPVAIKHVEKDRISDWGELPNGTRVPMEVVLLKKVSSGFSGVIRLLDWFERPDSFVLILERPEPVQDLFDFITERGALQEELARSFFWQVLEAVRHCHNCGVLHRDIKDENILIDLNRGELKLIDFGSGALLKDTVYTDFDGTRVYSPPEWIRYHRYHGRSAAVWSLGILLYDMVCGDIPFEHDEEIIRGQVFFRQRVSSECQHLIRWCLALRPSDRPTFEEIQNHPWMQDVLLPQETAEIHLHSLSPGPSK

| SMILES | IC50 [1, 5] | IC50 ([2]; read-out: IC50 (μM) PIM2) | IC50 ([3]; read-out: IC50 (μM) PIM3) | IC50 [4] | IC50 [1] | IC50 [1, 6] | IC50 ([2]; read-out: PIM2 IC50) | IC50 ([3]; read-out: PIM3 IC50) |
| --- | --- | --- | --- | --- | --- | --- | --- | --- |
| Nc1nccnc1C(=O)Nc1[nH]c(=O)ncc1-c1ccco1 [Example 136, 3-amino-N-[5-(2-furyl)-2-oxo-2,3-dihydropyrimidin-4-yl]-pyrazine-2-carboxamide] | < 1 µM | < 1 µM | < 1 µM | 1000 to 10000 nM | – | – | – | – |
| Nc1nccnc1C(=O)Nc1[nH]c(=O)ncc1N1CCC(F)CC1 [Example 149, 3-amino-N-[5-(4-fluoro-piperidin-1-yl)-2-oxo-2,3-dihydropyrimidin-4-yl]pyrazine-2-carboxamide] | – | – | – | 1000 to 10000 nM | – | – | – | – |
| Nc1ncc(-c2ccccc2OC(F)(F)F)nc1C(=O)Nc1[nH]c(=O)ncc1N1CCCC(N)C1 (stereo not drawn) [Example 405, 3-amino-6-(2-trifluoro-methoxy-phenyl)-pyrazine-2-carboxylic acid [5-(3-amino-piperidin-1-yl)-2-oxo-2,3-dihydro-pyrimidin-4-yl]-amide] | < 1 µM | < 1 µM | < 1 µM | 10000 to 25000 nM | – | – | – | – |
| Cc1cnc(N)c(C(=O)Nc2cnccc2N2CCCC(N)C2)n1 (stereo not drawn) [Example 371, 3-amino-6-methyl-pyrazine-2-carboxylic acid (3-amino-3,4,5,6-tetrahydro-2H-[1,4′]bi-pyridinyl-3′-yl)-amide] | < 1 µM | < 1 µM | < 1 µM | 1000 to 10000 nM | – | – | – | – |
| NCC(=O)N1CCN(c2ccncc2NC(=O)c2nccnc2N)CC1 [Example 189, 3-amino-N-{4-[4-(amino-acetyl)piperazin-1-yl]pyridin-3-yl}pyrazine-2-carboxamide] | – | 1 to 10 µM | < 1 µM | < 1000 nM | < 1 µM | – | – | – |
| Nc1cnc(C(=O)Nc2cnccc2N2CCCCC2)c(N)n1 [Example 312, 3,5-diamino-N-(4-(piperidin-1-yl)pyridin-3-yl)pyrazine-2-carboxamide] | < 1 µM | 1 to 10 µM | < 1 µM | 10000 to 25000 nM | – | – | – | – |
| Nc1nccnc1C(=O)Nc1cnccc1N1CCC(N)C1 (stereo not drawn) [Example 190, 3-amino-N-[4-(3-amino-pyrrolidin-1-yl)pyridin-3-yl]-pyrazine-2-carboxamide] | – | – | – | > 25000 nM | – | – | – | – |
| Nc1nccnc1C(=O)Nc1cnccc1N1CCNCC1 [Example 191, 3-amino-N-(4-piperazin-1-yl-pyridin-3-yl)pyrazine-2-carboxamide] | – | > 25 µM | 1 to 10 µM | < 1000 nM | < 1 µM | – | – | – |
| Nc1nccnc1C(=O)Nc1[nH]c(=O)ncc1N1CCCC(F)C1 (stereo not drawn) [Example 154, 3-amino-N-[5-(3-fluoro-piperidin-1-yl)-2-oxo-2,3-dihydropyrimidin-4-yl]pyrazine-2-carboxamide] | < 1 µM | < 1 µM | < 1 µM | < 1000 nM | – | – | – | – |
| N#Cc1ccccc1-c1cnc(N)c(C(=O)Nc2[nH]c(=O)ncc2N2CCCC(N)C2)n1 (stereo not drawn) [Example 403, 3-amino-6-(2-cyano-phenyl)-pyrazine-2-carboxylic acid [5-(3-amino-piperidin-1-yl)-2-oxo-2,3-dihydro-pyrimidin-4-yl]-amide] | < 1 µM | < 1 µM | < 1 µM | < 1000 nM | – | – | – | – |
| NCCC(=O)N1CCN(c2ccncc2NC(=O)c2nc(Br)cnc2N)CC1 [Example 178, 3-amino-N-{4-[4-(3-amino-propanoyl)piperazin-1-yl]-pyridin-3-yl}-6-bromopyrazine-2-carboxamide] | < 1 µM | < 1 µM | < 1 µM | < 1000 nM | – | – | – | – |
| Nc1ncc(-c2ccccc2C(F)(F)F)nc1C(=O)Nc1[nH]c(=O)ncc1N1CCCCC1 [Example 593, 3-amino-6-(2-trifluoromethyl-phenyl)-pyrazine-2-carboxylic acid (2-oxo-5-piperidin-1-yl-2,3-dihydro-pyrimidin-4-yl)-amide] | – | – | – | > 25000 nM | – | < 1 µM | < 1 µM | < 1 µM |
| Nc1ncc(Br)nc1C(=O)Nc1[nH]c(=O)ncc1-c1ccco1 [Example 141, 3-amino-6-bromo-N-[5-(2-furyl)-2-oxo-2,3-dihydro-pyrimidin-4-yl]pyrazine-2-carboxamide] | < 1 µM | < 1 µM | < 1 µM | 1000 to 10000 nM | – | – | – | – |
| Nc1ncc(-c2ccccc2Cl)nc1C(=O)Nc1[nH]c(=O)ncc1N1CCCCC1 [Example 595, 3-amino-6-(2-chloro-phenyl)-pyrazine-2-carboxylic acid (2-oxo-5-piperidin-1-yl-2,3-dihydro-pyrimidin-4-yl)-amide] | – | – | – | > 25000 nM | – | < 1 µM | < 1 µM | < 1 µM |
| Cn1cccc1-c1cnc(=O)[nH]c1NC(=O)c1nc(Br)cnc1N [Example 144, 3-amino-6-bromo-N-[5-(1-methyl-1H-pyrrol-2-yl)-2-oxo-2,3-dihydropyrimidin-4-yl]-pyrazine-2-carboxamide] | – | – | – | 1000 to 10000 nM | – | – | – | – |
| N#Cc1ccc(N2CCCCC2)c(NC(=O)c2nccnc2N)c1 [Example 171, 3-amino-N-(5-cyano-2-(piperidin-1-yl)phenyl)pyrazine-2-carboxamide] | < 1 µM | 1 to 10 µM | < 1 µM | 10000 to 25000 nM | – | – | – | – |
| NCCOc1ccncc1NC(=O)c1nccnc1N [Example 194, 3-amino-N-[4-(2-amino-ethoxy)pyridin-3-yl]pyrazine-2-carboxamide] | > 25 µM | > 25 µM | > 25 µM | > 25000 nM | – | – | – | – |
| Nc1nccnc1C(=O)Nc1[nH]c(=O)ncc1-c1ccccn1 [Example 140, 3-amino-N-(2-oxo-5-pyridin-2-yl-2,3-dihydropyrimidin-4-yl)-pyrazine-2-carboxamide] | < 1 µM | < 1 µM | < 1 µM | 1000 to 10000 nM | – | – | – | – |
| Nc1nccnc1C(=O)Nc1cncnc1N1CCCCC1 [Example 128, 3-amino-N-(4-piperidin-1-yl-pyrimidin-5-yl)pyrazine-2-carboxamide] | 1 to 10 µM | > 25 µM | 10 to 25 µM | > 25000 nM | – | – | – | – |
| NC(=O)c1ccc(N2CCCCC2)c(NC(=O)c2nccnc2N)c1 [Example 129, 3-amino-N-(5-carbamoyl-2-piperidin-1-ylphenyl)pyrazine-2-carboxamide] | – | – | – | 1000 to 10000 nM | – | – | – | – |
| Nc1ncc(-c2ccncc2)nc1C(=O)Nc1cnccc1N1CCCC(N)C1 (stereo not drawn) [Example 354, 3-amino-6-pyridin-4-yl-pyrazine-2-carboxylic acid (3-amino-3,4,5,6-tetrahydro-2H-[1,4′]bipyridinyl-3′-yl)-amide] | – | – | – | 1000 to 10000 nM | – | – | – | – |
| CC(C)Oc1ccc(F)c(-c2nc(C(=O)Nc3cnccc3N3CC[C@@H](N)[C@H](O)C3)c(N)cc2F)c1F [Example 666, 3-Amino-6-(2,6-difluoro-3-isopropoxy-phenyl)-5-fluoro-pyridine-2-carboxylic acid (4-amino-3-hydroxy-3,4,5,6-tetra-hydro-2H-[1,4′]bipyridinyl-3′-yl)-amide] | – | – | – | – | – | < 1 µM | < 1 µM | < 1 µM |
| Nc1ccc(-c2cncc(OCc3ccccc3)n2)nc1C(=O)Nc1cnccc1N1CCC[C@H](N)C1 [Example 750, 3-Amino-6-(6-benzyloxy-pyrazin-2-yl)-pyridine-2-carboxylic acid (3-amino-3,4,5,6-tetrahydro-2H-[1,4′]bi-pyridinyl-3′-yl)-amide] | – | – | – | – | – | < 1 µM | < 1 µM | < 1 µM |
| Nc1ccc(-c2ccccc2C(F)(F)F)nc1C(=O)Nc1cnccc1N1CCC[C@H](N)C1 [Example 336] | – | < 1 µM | < 1 µM | – | < 1 µM | – | – | – |
| CCCOc1ccc(F)c(-c2ccc(N)c(C(=O)Nc3cnccc3-c3cc(N)nc(C)n3)n2)c1F [Example 533, 3-Amino-6-(2,6-difluoro-3-propoxy-phenyl)-pyridine-2-carboxylic acid [4-(6-amino-2-methyl-pyrimidin-4-yl)-pyridin-3-yl]-amide] | < 1 µM | < 1 µM | < 1 µM | – | – | – | – | – |
| Nc1ccc(C2CC2)nc1C(=O)Nc1cnccc1N1CCC[C@H](N)C1 [Example 638, 3-amino-N-{4-[(3S)-3-aminopiperidin-1-yl]pyridin-3-yl}-6-cyclopropyl-pyridine-2-carboxamide] | – | – | – | – | – | < 1 µM | < 1 µM | < 1 µM |
| Nc1cc(F)c(Br)nc1C(=O)Nc1cnccc1N1CCC[C@H](N)C1 [Example 259, 3-amino-N-{4-[(3S)-3-amino-piperidin-1-yl]pyridin-3-yl}-6-bromo-5-fluoropyridine-2-carboxamide] | < 1 µM | < 1 µM | < 1 µM | – | – | – | – | – |
